Laboratory results: paper PMC7683729, “Altered conformational sampling along an evolutionary trajectory changes the catalytic activity of an enzyme” (Nature Communications, 2020)

B1: cyclohexadienyl dehydratase from Pseudomonas aeruginosa (PaCDT) (enzyme, UniProt Q01269 26-268, looked up)
chain: QESRLDRILESGVLRVATTGDYKPFSYRTEEGGYAGFDVDMAQRLAESLGAKLVVVPTSWPNLMRDFADDRFDIAMSGISINLERQRQAYFSIPYLRDGKTPITLCSEEARFQTLEQIDQPGVTAIVNPGGTNEKFARANLKKARILVHPDNVTIFQQIVDGKADLMMTDAIEARLQSRLHPELCAVHPQQPFDFAEKAYLLPRDEAFKRYVDQWLHIAEQSGLLRQRMEHWLEYRWPTAHGK
notes: cyclohexadienyl dehydratase, Pseudomonas aeruginosa, UniProt Q01269 residues 26-268; PDB 5HPQ and 6BQE number - 11); source: E. coli K-12 ΔpheA (pDOTS7), IMAC-purified; not shown: His6, N-terminal, kept

How the values were obtained:
[1] = test system: T1, AncCDT-5; test: end-point spectrophotometric phenylpyruvate formation ([…] nm); type: biochemical; conditions: equal volumes of protein in 20 mM Na2HPO4, 150 mM NaCl pH 7.4 and prephenate in 50 mM Na2HPO4 pH 8.0; room temperature (20–25 °C)
T1 construct: ancestral protein ending at Lys235; pDOTS7 vector, His6-tagged, expressed in E. coli delta-pheA; IMAC and SEC; predominantly monomeric

[2] = biological target: the molecule itself; test: SEC-MALS; 100 μL of each protein loaded at 10 mg mL^-1 on Superdex 200 10/300 GL; 20 mM Na2HPO4, 150 mM NaCl, pH 7.4; 0.5 mL min^-1; single experiment (n = 1)

| Molecule | Km [1] [µM] | stoichiometry N [2] |
| --- | --- | --- |
| O=C(O)C(=O)CC1(C(=O)O)C=CC(O)C=C1 (centres unmarked) [prephenate] | 277 ± 4 | – |
| B1 | – | 3 |
